One test has as its system Uromyces viciae-fabae. Kind of test: Uromyces viciae-fabae / field bean / leaf disc preventative (faba-bean rust). As to conditions: foliar, 288 h, 100 ppm in the applied formulation, field bean leaf discs, inoculated two hours after application, vs untreated, 12 days after application, read-out: disease control. In kind it is in vivo. The protocol:
Leaf disks or leaf segments of various plant species are cut from plants grown in a greenhouse. The cut leaf disks or segments are placed in multiwell plates (24-well format) onto water agar. The leaf disks are sprayed with a test solution before (preventative) or after (curative) inoculation. Compounds to be tested are prepared as DMSO solutions (max. 10 mg/ml) which are diluted to the appropriate concentration with 0.025% Tween20 just before spraying. The inoculated leaf disks or segments are incubated under defined conditions (temperature, relative humidity, light, etc.) according to the respective test system. A single evaluation of disease level is carried out 3 to 14 days after inoculation, depending on the pathosystem. Percent disease control relative to the untreated check leaf disks or segments is then calculated.
Example 5: Fungicidal Activity Against Uromyces viciae-fabael Field Bean/Leaf Disc Preventative (Faba-Bean Rust)
Field bean leaf discs are placed on water agar in multiwell plates (96-well format) and 10 μl of the Formulated test compound diluted in acetone and a spreader pipetted onto the leaf disc. Two hours after application leaf discs are inoculated by spraying a spore suspension on the lower leaf surface. The leaf discs are incubated in a climate cabinet at 22° C. with 18 hour day and 70% relative humidity. The activity of a compound is assessed as percent disease control compared to untreated when an appropriate level of disease damage appears in untreated check leaf disks (12 days after application).
The following compounds at 100 ppm in the applied Formulation give at least 80% disease control in this test when compared to untreated control leaf discs under the same conditions, which show extensive disease development.

In test [1] the test system is Glomerella lacenarium (Colletotrichum lacenarium). Kind of test: Glomerella lacenarium (Colletotrichum lacenarium) liquid culture / cucumber / preventative (anthracnose). Conditions: 20 ppm, liquid culture in PDB, 24° C., inhibition of growth measured photometrically 3 to 4 days after application, vs untreated, read-out: disease control. Type of test: cell-based. The gist of the method:
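Cryopreserved conidia in potato dextrose broth were added to test compound in a 96-well microtiter plate and incubated at 24 °C. Growth inhibition read photometrically 3–4 days after application, as percent activity versus untreated check.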

Test [2] deals with Puccinia recondita f. Sp. Tritici. Kind of test: Puccinia recondita f. sp. tritici / wheat / leaf disc preventative (brown rust). In kind it is in vivo. Conditions: foliar, 200 ppm in the applied formulation, wheat leaf segments cv. Kanzler, inoculated 1 day after application, vs untreated, 7 to 9 days after application, read-out: disease control. Summed up:
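Preventative leaf-segment test on wheat cv. Kanzler: formulated compound diluted in water was sprayed onto segments on agar, with spore inoculation 1 day later. Incubated at 19° C, 75% rh, 12 h light/12 h dark; percent disease control versus untreated scored 7 to 9 days after application.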

`O=C(Nc1ccc(-c2noc(C(F)(F)F)n2)cc1)c1ccccc1` [Compound 1.3, N-[4-[5-(trifluoromethyl)-1,2,4-oxadiazol-3-yl]phenyl]benzamide]: in the test on Uromyces viciae-fabae, the pest or weed control at 100 ppm was not below 80%.
The same measure, in the same setting: then `O=C(Nc1ccc(-c2noc(C(F)(F)F)n2)cc1)c1cccn2ccnc12` [Compound 1.7, N-[4-[5-(trifluoromethyl)-1,2,4-oxadiazol-3-yl]phenyl]imidazo[1,2-a]pyridine-8-carboxamide], with not below 80%; and `O=C(Nc1ccc(-c2noc(C(F)(F)F)n2)cc1)c1cn(C2CC2)c2cc(Cl)c(F)cc2c1=O` [Compound 1.8, 7-chloro-1-cyclopropyl-6-fluoro-4-oxo-N-[4-[5-(trifluoromethyl)-1,2,4-oxadiazol-3-yl]phenyl]quinoline-3-carboxamide], with not below 80%; and `O=C(Nc1ccc(-c2noc(C(F)(F)F)n2)cc1)c1cccc2c1OCCO2` [Compound 1.9, N-[4-[5-(trifluoromethyl)-1,2,4-oxadiazol-3-yl]phenyl]-2,3-dihydro-1,4-benzodioxine-5-carboxamide], with not below 80%.
Turning to `CS(=O)(=O)CC(=O)Nc1ccc(-c2noc(C(F)(F)F)n2)cc1` [Compound 1.10, 2-methylsulfonyl-N-[4-[5-(trifluoromethyl)-1,2,4-oxadiazol-3-yl]phenyl]acetamide], the inhibition of growth at 20 ppm in test [1] is not below 80%. For the same compound, the pest or weed control at 100 ppm in the test on Uromyces viciae-fabae is not below 80%.
In the case of `COc1cc(CCC(=O)Nc2ccc(-c3noc(C(F)(F)F)n3)cc2)cc(OC)c1OC` [Compound 1.13, N-[4-[5-(trifluoromethyl)-1,2,4-oxadiazol-3-yl]phenyl]-3-(3,4,5-trimethoxyphenyl) propanamide], the pest or weed control at 200 ppm in test [2] is not below 80%. The inhibition of growth at 20 ppm in test [1] was not below 80%. The pest or weed control at 100 ppm in the test on Uromyces viciae-fabae is not below 80%.
For the compound `O=C(NC(C(=O)Nc1ccc(-c2noc(C(F)(F)F)n2)cc1)c1ccccc1)OCc1ccccc1` (stereo not shown) [Compound 1.14, benzyl N-[2-oxo-1-phenyl-2-[4-[5-(trifluoromethyl)-1,2,4-oxadiazol-3-yl]anilino]ethyl] carbamate], the pest or weed control at 100 ppm in the test with Uromyces viciae-fabae was not below 80%.
For the compound `N#Cc1cc(F)c(C(=O)Nc2ccc(-c3noc(C(F)(F)F)n3)cc2)c(F)c1` [Compound 1.15, 4-cyano-2,6-difluoro-N-[4-[5-(trifluoromethyl)-1,2,4-oxadiazol-3-yl]phenyl]benzamide], the inhibition of growth at 20 ppm in test [1] is not below 80%. The pest or weed control at 100 ppm in the test with Uromyces viciae-fabae is not below 80%.
Regarding `O=C(C=Cc1cccc2ccccc12)Nc1ccc(-c2noc(C(F)(F)F)n2)cc1` [Compound 1.17, 3-(1-naphthyl)-N-[4-[5-(trifluoromethyl)-1,2,4-oxadiazol-3-yl]phenyl]prop-2-enamide], the pest or weed control at 100 ppm in the test on Uromyces viciae-fabae is not below 80%.
Still for that read-out and setting: then `COc1cc(OC)nc(Oc2ncccc2C(=O)Nc2ccc(-c3noc(C(F)(F)F)n3)cc2)n1` [Compound 1.22, 2-(4,6-dimethoxypyrimidin-2-yl)oxy-N-[4-[5-(trifluoromethyl)-1,2,4-oxadiazol-3-yl]phenyl]pyridine-3-carboxamide], with not below 80%.
The same measure, in the same setting: under `COc1ccc(Br)cc1C(C)C(=O)Nc1ccc(-c2noc(C(F)(F)F)n2)cc1` (stereo not shown) [Compound 1.24, 2-(5-bromo-2-methoxy-phenyl)-N-[4-[5-(trifluoromethyl)-1,2,4-oxadiazol-3-yl]phenyl] propanamide] stands not below 80%; under `Cn1nc(C(=O)Nc2ccc(-c3noc(C(F)(F)F)n3)cc2)c(Cl)c1OC(F)F` [Compound 1.25, 4-chloro-5-(difluoromethoxy)-1-methyl-N-[4-[5-(trifluoromethyl)-1,2,4-oxadiazol-3-yl]phenyl]pyrazole-3-carboxamide], not below 80%; under `O=C(Nc1ccc(-c2noc(C(F)(F)F)n2)cc1)c1nccc2nnsc12` [Compound 1.28, N-[4-[5-(trifluoromethyl)-1,2,4-oxadiazol-3-yl]phenyl]thiadiazolo [5,4-c]pyridine-4-carboxamide], not below 80%.
On the same count and under the same terms, under `CC(C)C(NC(=O)OC(C)(C)C)C1=NOC(C(=O)Nc2ccc(-c3noc(C(F)(F)F)n3)cc2)C1` (stereo not shown) [Compound 1.30, tert-butyl N-[2-methyl-1-[5-[[4-[5-(trifluoromethyl)-1,2,4-oxadiazol-3-yl]phenyl]carbamoyl]-4,5-dihydroisoxazol-3-yl]propyl]carbamate] stands not below 80%.
With `CC(C)(C(=O)Nc1ccc(-c2noc(C(F)(F)F)n2)cc1)c1ncc(Cl)cc1Cl` [Compound 1.32, 2-(3,5-dichloro-2-pyridyl)-2-methyl-N-[4-[5-(trifluoromethyl)-1,2,4-oxadiazol-3-yl]phenyl] propanamide], in test [2], the pest or weed control at 200 ppm was not below 80%. Also, the pest or weed control at 100 ppm in the test with Uromyces viciae-fabae is not below 80%.
As to `Cn1nc(C(C)(C)C)cc1C(=O)Nc1cccc(C(=O)Nc2ccc(-c3noc(C(F)(F)F)n3)cc2)c1` [Compound 1.33, 5-tert-butyl-2-methyl-N-[3-[[4-[5-(trifluoromethyl)-1,2,4-oxadiazol-3-yl]phenyl]carbamoyl]phenyl]pyrazole-3-carboxamide], the pest or weed control at 100 ppm in the test with Uromyces viciae-fabae was not below 80%.
On the same count and under the same terms, under `O=C(Nc1ccc(-c2noc(C(F)(F)F)n2)cc1)c1cc(F)cc2nnsc12` [Compound 1.34, 5-fluoro-N-[4-[5-(trifluoromethyl)-1,2,4-oxadiazol-3-yl]phenyl]-1,2,3-benzothiadiazole-7-carboxamide] stands not below 80%.
Turning to `O=C(COc1ccc(Oc2cccc(F)c2)cc1)Nc1ccc(-c2noc(C(F)(F)F)n2)cc1` [Compound 1.35, 2-[4-(3-fluorophenoxy)phenoxy]-N-[4-[5-(trifluoromethyl)-1,2,4-oxadiazol-3-yl]phenyl]acetamide], the pest or weed control at 100 ppm in the test on Uromyces viciae-fabae was not below 80%.
The same measure, in the same setting: then `Cc1sc(Nc2ccccc2)nc1C(=O)Nc1ccc(-c2noc(C(F)(F)F)n2)cc1` [Compound 1.37, 2-anilino-5-methyl-N-[4-[5-(trifluoromethyl)-1,2,4-oxadiazol-3-yl]phenyl]thiazole-4-carboxamide], with not below 80%.
Turning to `O=C(Nc1ccc(-c2noc(C(F)(F)F)n2)cc1)c1cccc(OCc2ccccc2)c1` [Compound 1.38, 3-benzyloxy-N-[4-[5-(trifluoromethyl)-1,2,4-oxadiazol-3-yl]phenyl]benzamide], the pest or weed control at 100 ppm with Uromyces viciae-fabae was not below 80%.
As to `CC1Cc2c(Br)ccc(C(=O)Nc3ccc(-c4noc(C(F)(F)F)n4)cc3)c2S1(=O)=O` (stereo not shown) [Compound 1.39, 4-bromo-2-methyl-1,1-dioxo-N-[4-[5-(trifluoromethyl)-1,2,4-oxadiazol-3-yl]phenyl]-2,3-dihydrobenzo-thiophene-7-carboxamide], the inhibition of growth at 20 ppm in test [1] was not below 80%. In the test on Uromyces viciae-fabae, the pest or weed control at 100 ppm is not below 80%.
For the compound `O=C(Nc1ccc(-c2noc(C(F)(F)F)n2)cc1)C(F)(F)c1ccc(Br)cc1` [Compound 1.40, 2-(4-bromophenyl)-2,2-difluoro-N-[4-[5-(trifluoromethyl)-1,2,4-oxadiazol-3-yl]phenyl]acetamide], in the test on Uromyces viciae-fabae, the pest or weed control at 100 ppm was not below 80%.
On the same count and under the same terms, then `O=C(Nc1ccc(-c2noc(C(F)(F)F)n2)cc1)c1ccc(-n2ccnc2)cc1` [Compound 1.42, 4-imidazol-1-yl-N-[4-[5-(trifluoromethyl)-1,2,4-oxadiazol-3-yl]phenyl]benzamide], with not below 80%; and `O=C(Nc1ccc(-c2noc(C(F)(F)F)n2)cc1)c1cc(Br)nn1-c1ncccc1Cl` [Compound 1.43, 5-bromo-2-(3-chloro-2-pyridyl)-N-[4-[5-(trifluoromethyl)-1,2,4-oxadiazol-3-yl]phenyl]pyrazole-3-carboxamide], with not below 80%.
For `COCC(=O)N(CC(=O)NC(C)(C)C)c1ccc(-c2noc(C(F)(F)F)n2)cc1` [Compound 1.58, N-tert-butyl-2-[N-(2-methoxyacetyl)-4-[5-(trifluoromethyl)-1,2,4-oxadiazol-3-yl]anilino]acetamide], the pest or weed control at 200 ppm in test [2] is not below 80%. Also, the pest or weed control at 100 ppm in the test with Uromyces viciae-fabae was not below 80%.
For `CC(=O)N(c1ccc(-c2noc(C(F)(F)F)n2)cc1)C(C)C(=O)NC(C)(C)C` (stereo not shown) [Compound 1.59, 2-[N-acetyl-4-[5-(trifiuoromethyl)-1,2,4-oxadiazol-3-yl]anilino]-N-tert-butyl-propanamide], the pest or weed control at 100 ppm in the test on Uromyces viciae-fabae is not below 80%.
On the same count and under the same terms, under `CC(=O)N(c1ccc(-c2noc(C(F)(F)F)n2)cc1)C(C)(C)C(=O)NC(C)(C)C` [Compound 1.61, 2-[N-acetyl-4-[5-(trifluoromethyl)-1,2,4-oxadiazol-3-yl]anilino]-N-tert-butyl-2-methyl-propanamide] stands not below 80%.

These data come from patent publication US20200022370A1, “MICROBIOCIDAL OXADIAZOLE DERIVATIVES” (SYNGENTA PARTICIPATIONS AG, priority 2016, published 2020).
